Assay results from PMC6934184, “Selective DNA-PKcs inhibition extends the therapeutic index of localized radiotherapy and chemotherapy” (The Journal of Clinical Investigation, 2019).

Target: T1, CAMK2B (CaMKII beta) (Homo sapiens, UniProt Q13554)
T1 construct: purchased Thermo Fisher Scientific (Life Technologies) SelectScreen
Assay: SelectScreen Z'LYTE
Type: biochemical
In short: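 Percent values come from Thermo SelectScreen profiling of NU5455, combining activity and binding assays. CSF1R was run in Z'LYTE format at Km app ATP, and CAMK1 in Adapta format with ATP listed at 10.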

T1 sequence (Q13554 whole entry): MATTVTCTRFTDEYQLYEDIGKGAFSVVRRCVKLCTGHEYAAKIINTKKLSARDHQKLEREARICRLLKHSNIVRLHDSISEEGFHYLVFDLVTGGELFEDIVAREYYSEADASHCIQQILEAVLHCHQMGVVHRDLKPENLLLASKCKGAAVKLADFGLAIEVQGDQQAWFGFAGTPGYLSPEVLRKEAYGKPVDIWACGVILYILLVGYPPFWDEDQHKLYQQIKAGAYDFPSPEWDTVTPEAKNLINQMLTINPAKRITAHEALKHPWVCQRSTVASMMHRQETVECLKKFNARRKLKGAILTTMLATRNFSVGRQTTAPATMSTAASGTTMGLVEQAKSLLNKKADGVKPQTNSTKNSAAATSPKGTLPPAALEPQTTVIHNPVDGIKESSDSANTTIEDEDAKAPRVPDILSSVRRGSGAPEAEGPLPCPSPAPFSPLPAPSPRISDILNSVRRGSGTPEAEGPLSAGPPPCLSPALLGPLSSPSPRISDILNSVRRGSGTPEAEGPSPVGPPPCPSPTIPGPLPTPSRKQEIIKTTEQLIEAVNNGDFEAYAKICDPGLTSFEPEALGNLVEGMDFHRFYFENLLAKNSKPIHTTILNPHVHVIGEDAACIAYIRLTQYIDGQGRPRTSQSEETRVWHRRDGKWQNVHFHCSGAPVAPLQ

Structure (SMILES): CN(C(=O)CN1CCOCC1)c1ccc2sc3c(-c4cccc5c(=O)cc(N6CC7CCC(C6)O7)oc45)cccc3c2c1 [NU5455]
- inhibition at 1 µM: 0.7%
